This passage reports IC50 results from patent publication US10858335B2 (Rigel Pharmaceuticals, Inc., priority 2014, dated 2020).

For the experiment, the system named is GDF8 signaling (p-SMAD-3 (Ser423/425)). As to the kind of experiment: AlphaScreen SureFire SMAD3 (p-Ser423/425) assay, GDF8-stimulated cells (GDF pSMAD). It is filed as cell-based. Particulars: Mus musculus, MPC-11, MPC11; GDF8-stimulated; p-SMAD3 AlphaScreen; read-out: GDF pSMAD (MPC11) (inhibition of GDF8 signaling). A general note: In Alpha technology, singlet oxygen from a donor bead excites a nearby acceptor bead.

On to `Nc1ncnc2ccc(-c3cccnc3-c3cccc(OCC4CC4)c3)cc12` [compound 483, 6-(2-(3-(Cyclopropylmethoxy)phenyl)pyridin-3-yl)quinazolin-4-amine], for which the IC50 turned out to be 820 nM.

Consider `Nc1ncnc2ccc(-c3cccnc3-c3cccc(OCC(F)(F)F)c3)cc12` [compound 484, 6-(2-(3-(2,2,2-Trifluoroethoxy)phenyl)pyridin-3-yl)quinazolin-4-amine], for which the IC50 turned out to be 161 nM.

With `Fc1ccc(-c2ncccc2-c2ccc3ncnc(Nc4cccnc4)c3c2)cc1Cl` [compound 490, 6-(2-(3-Chloro-4-fluorophenyl)pyridin-3-yl)-N-(pyridin-3-yl)quinazolin-4-amine], the IC50 is 6510 nM.

Take `Cc1ccc(Nc2ncnc3ccc(-c4cccnc4-c4ccc(F)c(Cl)c4)cc23)cn1` [compound 491, 6-(2-(3-Chloro-4-fluorophenyl)pyridin-3-yl)-N-(6-methylpyridin-3-yl)quinazolin-4-amine]: the IC50 stood at 9220 nM.

On to `Fc1ccc(-c2ncccc2-c2ccc3ncnc(Nc4ccncc4)c3c2)cc1Cl` [compound 492, 6-(2-(3-Chloro-4-fluorophenyl)pyridin-3-yl)-N-(pyridin-4-yl)quinazolin-4-amine], for which the IC50 stood at 3730 nM.

For `Nc1ncnc2ccc(-c3cccnc3-c3cc(O)cc(Cl)c3)cc12` [compound 493, 3-(3-(4-Aminoquinazolin-6-yl)pyridin-2-yl)-5-chlorophenol], the IC50 was 938 nM.

In the case of `Nc1ncnc2ccc(-c3cccnc3-c3cc(O)cc(F)c3)cc12` [compound 494, 3-(3-(4-Aminoquinazolin-6-yl)pyridin-2-yl)-5-fluorophenol], the IC50 worked out at 107 nM.

As to `Cc1cc(O)cc(-c2ncccc2-c2ccc3ncnc(N)c3c2)c1` [compound 495, 3-(3-(4-Aminoquinazolin-6-yl)pyridin-2-yl)-5-methylphenol], the IC50 came to 247 nM.

For the compound `Nc1ncc2ccc(-c3cccnc3-c3ccc(F)c(Cl)c3)cc2n1` [compound 496, 7-(2-(3-Chloro-4-fluorophenyl)pyridin-3-yl)quinazolin-2-amine], the IC50 was determined as 783 nM.

On to `Nc1ncnc2ccc(-c3cccnc3-c3ccccc3Cl)cc12` [compound 497, 6-(2-(2-Chlorophenyl)pyridin-3-yl)quinazolin-4-amine], for which the IC50 is 9220 nM.

In the case of `Nc1ncnc2ccc(-c3cccnc3-c3cccc(Cl)c3Cl)cc12` [compound 498, 6-(2-(2,3-Dichlorophenyl)pyridin-3-yl)quinazolin-4-amine], the IC50 amounted to 1200 nM.

Turning to `Nc1ncnc2ccc(-c3cccnc3-c3ccc(F)cc3Cl)cc12` [compound 499, 6-(2-(2-Chloro-4-fluorophenyl)pyridin-3-yl)quinazolin-4-amine], the IC50 amounted to 6520 nM.

On to `Nc1ncnc2ccc(-c3cccnc3-c3cc(Cl)ccc3Cl)cc12` [compound 501, 6-(2-(2,5-Dichlorophenyl)pyridin-3-yl)quinazolin-4-amine], for which the IC50 was found to be 355 nM.

With `COc1cc(-c2ncccc2-c2ccc3ncnc(N)c3c2)c(F)cc1F` [compound 502, 6-(2-(2,4-Difluoro-5-methoxyphenyl)pyridin-3-yl)quinazolin-4-amine], the IC50 stood at 563 nM.

For the compound `Nc1ncnc2ccc(-c3cccnc3-c3cccc(F)c3Cl)cc12` [compound 503, 6-(2-(2-Chloro-3-fluorophenyl)pyridin-3-yl)quinazolin-4-amine], the IC50 was 4820 nM.

Consider `Nc1ncnc2ccc(-c3cccnc3-c3cc(F)ccc3Cl)cc12` [compound 504, 6-(2-(2-Chloro-5-fluorophenyl)pyridin-3-yl)quinazolin-4-amine], for which the IC50 worked out at 4960 nM.

In the case of `Fc1ccc(-c2ncccc2-c2ccc3ncncc3c2)cc1Cl` [compound 506, 6-(2-(3-Chloro-4-fluorophenyl)pyridin-3-yl)quinazoline], the IC50 amounted to 1830 nM.

In the case of `Fc1ccc(-c2ncccc2-c2ccc3ncnc(C4CC4)c3c2)cc1Cl` [compound 507, 6-(2-(3-Chloro-4-fluorophenyl)pyridin-3-yl)-4-cyclopropylquinazoline], the IC50 turned out to be 3360 nM.
